According to patent publication US10081665B2, “Peptides and combination of peptides for use in immunotherapy against various tumors” (immatics biotechnologies GmbH, priority 2015, dated 2018):

How the values were obtained:
CD8+ T cells = test: In vitro immunogenicity: T-cell priming with aAPCs loaded with peptide/MHC complexes and anti-CD28, pMHC multimer readout; assay type: cell-based, human; conditions: for Wells positive [%]: in vitro immunogenicity, HLA-A*02 restricted peptides, percentage of positive wells and donors (among evaluable); for in vitro immunogenicity: donors: positive donors; for in vitro immunogenicity: donors / in vitro immunogenicity: wells: CD8+ T cells of healthy HLA-A*02 donors, three stimulation cycles, multimer staining; for in vitro immunogenicity: wells: positive wells
Source text: In order to obtain information regarding the immunogenicity of the TUMAPs of the present invention, the inventors performed investigations using an in vitro T-cell priming assay based on repeated stimulations of CD8+ T cells with artificial antigen presenting cells (aAPCs) loaded with peptide/MHC complexes and anti-CD28 antibody.
In order to perform in vitro stimulations by artificial antigen presenting cells loaded with peptide-MHC complex (pMHC) and anti-CD28 antibody, the inventors first isolated CD8+ T cells from fresh HLA-A*02 leukapheresis products via positive selection using CD8 microbeads (Miltenyi Biotec, Bergisch-Gladbach, Germany) of healthy donors obtained from the University clinics Mannheim, Germany, after informed consent. PBMCs and isolated CD8+ lymphocytes were incubated in T-cell medium (TCM) until use consisting of RPMI-Glutamax (Invitrogen, Karlsruhe, Germany) supplemented with 10% heat inactivated human AB serum (PAN-Biotech, Aidenbach, Germany), 100 U/ml Penicillin/100 μg/ml Streptomycin (Cambrex, Cologne, Germany), 1 mM sodium pyruvate (CC Pro, Oberdorla, Germany), 20 μg/ml Gentamycin (Cambrex). 2.5 ng/ml IL-7 (PromoCell, Heidelberg, Germany) and 10 U/ml IL-2 (Novartis Pharma, Nürnberg, Germany) were also added to the TCM at this step. Generation of pMHC/anti-CD28 coated beads, T-cell stimulations and readout was performed in a highly defined in vitro system using four different pMHC molecules per stimulation condition and 8 different pMHC molecules per readout condition.
The purified co-stimulatory mouse IgG2a anti human CD28 Ab 9.3 (Jung et al., 1987) was chemically biotinylated using Sulfo-N-hydroxysuccinimidobiotin as recommended by the manufacturer (Perbio, Bonn, Germany). Beads used were 5.6 μm diameter streptavidin coated polystyrene particles (Bangs Laboratories, Illinois, USA).
pMHC used for positive and negative control stimulations were A*0201/MLA-001 (peptide […] (SEQ ID NO. 289) from modified Melan-A/MART-1) and A*0201/DDX5-001 ([…] from DDX5, SEQ ID NO. 290), respectively.
800,000 beads/200 μl were coated in 96-well plates in the presence of 4×12.5 ng different biotin-pMHC, washed and 600 ng biotin anti-CD28 were added subsequently in a volume of 200 μl. Stimulations were initiated in 96-well plates by co-incubating 1×10^6 CD8+ T cells with 2×10^5 washed coated beads in 200 μl TCM supplemented with 5 ng/ml IL-12 (PromoCell) for 3 days at 37° C. Half of the medium was then exchanged by fresh TCM supplemented with 80 U/ml IL-2 and incubating was continued for 4 days at 37° C. This stimulation cycle was performed for a total of three times. For the pMHC multimer readout using 8 different pMHC molecules per condition, a two-dimensional combinatorial coding approach was used as previously described (Andersen et al., 2012) with minor modifications encompassing coupling to 5 different fluorochromes. Finally, multimeric analyses were performed by staining the cells with Live/dead near IR dye (Invitrogen, Karlsruhe, Germany), CD8-FITC antibody clone SK1 (BD, Heidelberg, Germany) and fluorescent pMHC multimers. For analysis, a BD LSRII SORP cytometer equipped with appropriate lasers and filters was used. Peptide specific cells were calculated as percentage of total CD8+ cells. Evaluation of multimeric analysis was done using the FlowJo software (Tree Star, Oreg., USA). In vitro priming of specific multimer+CD8+ lymphocytes was detected by comparing to negative control stimulations.

HLA-A*02:01 = HLA-A*02:01 (Homo sapiens, UniProt P04439, D140Y/D185E/D98H/E176V/E277Q/G131W/G231S/I119V/I121R/I166T/I218V/L300P/L318F/N151K/N90K/P208A/P217A/Q86G/Q94H/R138H/R169H/T345S); test: MHC binding assay (UV-ligand exchange, beta2m ELISA); conditions: binding to HLA-A*02:01, β2m ELISA
Method in brief: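 Peptide-MHC complexes made by UV-ligand exchange of a UV-cleavable peptide for test peptide; exchange yield measured by β2m ELISA on streptavidin-coated plates with samples diluted 100-fold, HRP anti-β2m and TMB read at 450 nm. Refolded HLA-A*02:01/MLA-001 monomers (15-500 ng/ml) served as standards.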

[1] = test system: advanced non-resectable HCC; conditions: advanced non-resectable HCC patients (Chapiro et al., 2014; Llovet et al., 2008); cited from earlier work

Peptide exchange (MHC class I binding score, peptide exchange yield) (HLA-A*02:01)	Compound	Wells positive [%] (CD8+ T cells)	in vitro immunogenicity: donors (CD8+ T cells)	in vitro immunogenicity: wells (CD8+ T cells)	increase of survival [1]
++ (≥20% = ++)	121 (ALYVQAPTV; listed as Homo sapiens) [compound 121]	+ (<20% = +)			
++ (≥20% = ++)	157 (ILQDGQFLV; listed as Homo sapiens) [compound 157]	+ (<20% = +)			
+++ (≥50 = +++)	183 (ALSYILPYL; listed as Homo sapiens) [compound 183]	+++ (50%-69% = +++)			
++ (≥20% = ++)	203 (FLFVDPELV; listed as Homo sapiens) [compound 203]	+++ (50%-69% = +++)			
+++ (≥50 = +++)	233 (SLFESLEYL; listed as Homo sapiens) [compound 233]	+ (<20% = +)			
+++ (≥50 = +++)	236 (KMSELQTYV; listed as Homo sapiens) [compound 236]	+ (<20% = +)			
+++ (≥50 = +++)	242 (KLQEEIPVL; listed as Homo sapiens) [compound 242]	+ (<20% = +)			
+++ (≥50 = +++)	246 (ALAGIVTNV; listed as Homo sapiens) [compound 246]	+ (<20% = +)			
++ (≥20% = ++)	254 (ALGDKFLLRV; listed as Homo sapiens) [compound 254]	+ (<20% = +)			
+++ (≥50 = +++)	255 (FLMKNSDLYGA; listed as Homo sapiens) [compound 255]	+ (<20% = +)			
+++ (≥50 = +++)	257 (KLIDHQGLYL; listed as Homo sapiens) [compound 257]	+ (<20% = +)			
+++ (≥50 = +++)	260 (ALNESLVEC; listed as Homo sapiens) [compound 260]	+ (<20% = +)			
+++ (≥50 = +++)	263 (SIIEYLPTL; listed as Homo sapiens) [compound 263]	+ (<20% = +)			
++ (≥20% = ++)	264 (TLHDQVHLL; listed as Homo sapiens) [compound 264]	+ (<20% = +)			
+++ (≥50 = +++)	267 (YLLDMPLWYL; listed as Homo sapiens) [compound 267]	+ (<20% = +)			

Further lines, the compound ahead of its results:

Compound	Peptide exchange (MHC class I binding score, peptide exchange yield) (HLA-A*02:01)	Wells positive [%] (CD8+ T cells)	in vitro immunogenicity: donors (CD8+ T cells)	in vitro immunogenicity: wells (CD8+ T cells)	increase of survival [1]
4 (VLFGELPAL; listed as Homo sapiens) [compound 4]	+++ (≥50 = +++)	+ (<20% = +)			
9 (SLITGQDLLSV; listed as Homo sapiens) [compound 9]	+++ (≥50 = +++)	+ (<20% = +)			
14 (YTFSGDVQL; listed as Homo sapiens) [compound 14]	+++ (≥50 = +++)	+ (<20% = +)			
17 (GLLPSAESIKL; listed as Homo sapiens) [compound 17]	++++ (≥75% = ++++)	+ (<20% = +)			
18 (KTASINQNV; listed as Homo sapiens) [compound 18]	++ (≥20% = ++)	+++ (50%-69% = +++)			
27 (GLLGKVTSV; listed as Homo sapiens) [compound 27]	+++ (≥50 = +++)	+ (<20% = +)			
29 (KMISAIPTL; listed as Homo sapiens) [compound 29]	++ (≥20% = ++)	+ (<20% = +)			
34 (TLNTLDINL; listed as Homo sapiens) [compound 34]	+++ (≥50 = +++)	++++ (>=70% = ++++)			
35 (VIIKGLEEI; listed as Homo sapiens) [compound 35]	++ (≥20% = ++)	+ (<20% = +)			
39 (YLEDGFAYV; listed as Homo sapiens) [compound 39]	+++ (≥50 = +++)	++++ (>=70% = ++++)			
50 (ILLSVLHQL; listed as Homo sapiens) [compound 50]	+++ (≥50 = +++)	+ (<20% = +)			
66 (AMFPDTIPRV; listed as Homo sapiens) [compound 66]	++ (≥20% = ++)	+ (<20% = +)			
77 (ALYGNVQQV; listed as Homo sapiens) [compound 77]	+++ (≥50 = +++)	+ (<20% = +)			
82 (ILAEEPIYIRV; listed as Homo sapiens) [compound 82]	+++ (≥50 = +++)	+++ (50%-69% = +++)			
89 (SLAETIFIV; listed as Homo sapiens) [compound 89]	+++ (≥50 = +++)	+ (<20% = +)			
97 (KLFEKSTGL; listed as Homo sapiens) [compound 97]	+++ (≥50 = +++)	+ (<20% = +)			
101 (SLLEVNEASSV; listed as Homo sapiens) [compound 101]	+++ (≥50 = +++)	+ (<20% = +)			
102 (GLYPVTLVGV; listed as Homo sapiens) [compound 102]	+++ (≥50 = +++)	+ (<20% = +)			
287 (KIQEILTQV; listed as Homo sapiens) [compound 287]			+++ (50%-69% =+++)	+ (<20% = +)	
288 (SLYKGLLSV; listed as Homo sapiens) [compound 288]			++++ (>= 70% = ++++)	++ (21%-49% = ++)	
CNC(=O)c1cc(Oc2ccc(NC(=O)Nc3ccc(Cl)c(C(F)(F)F)c3)cc2)ccn1 [Sorafenib]					about 3 months
